# From patent US20160129089A1, “COMBINATION THERAPY” (ANTISENSE THERAPEUTICS LTD, priority 2013, published 2016)
# e = 2'-O-(2-methoxyethyl) (MOE); d = 2'-deoxy (DNA)
# Test system: human growth hormone receptor mRNA
# Test: Inhibition of human growth hormone receptor mRNA levels by antisense oligonucleotides, quantitative real-time PCR, MCF7 cells
# Assay type: cell-based
# Parameters: concentration or dose not given beside the values
# Settings: averages from three experiments
# Experimental: “Target site” indicates the first (5′-most) nucleotide number on the particular target sequence to which the oligonucleotide binds. “% Inhib” indicates the inhibitory effect on hGHR mRNA levels by quantitative real-time PCR. Data are averages from three experiments in which MCF7 cells were treated with the antisense oligonucleotides.
# All oligonucelotides in Table 1 are chimeric oligonucleotides (“gapmers”), 20 nucleotides in length, composed of a central “gap” region consisting of ten 2′-deoxynucleotides, which is flanked on both sides (5′ and 3′ directions) by five-nucleotide “wings”. The wings are composed of 2′-methoxyethyl (2′-MOE) nucleotides. The internucleoside (backbone) linkages are phosphorothioate (P═S) throughout the oligonucleotide. All uracils are 5-methyluracils (^MeU). Typically, the oligonucleotide is synthesized using 2-methoxyethyl modified thymidines not 5-methyluracils. All pyrimidines are C5 methylated (i.e., U, T, C are C5 methylated).
row,Substance,% INHIB (inhibitory effect on hGHR mRNA levels)
1,"272321 (antisense AACCCAAGAGTCATCACTGT; sugars from the 5' end e5 d10 e5, all phosphorothioate, methylation of C not given here) [compound 272321]",64%
2,"272322 (antisense CTGGCTCATCAATATCTAGC; sugars from the 5' end e5 d10 e5, all phosphorothioate, methylation of C not given here) [compound 272322]",84%
3,"272323 (antisense TGTGTCTGATTCCTCAGTCT; sugars from the 5' end e5 d10 e5, all phosphorothioate, methylation of C not given here) [compound 272323]",67%
4,"272324 (antisense TATGTCATTGGCATTGAAAT; sugars from the 5' end e5 d10 e5, all phosphorothioate, methylation of C not given here) [compound 272324]",53%
5,"272325 (antisense AAGGCATAAGAGATCTGCTT; sugars from the 5' end e5 d10 e5, all phosphorothioate, methylation of C not given here) [compound 272325]",66%
6,"272326 (antisense ACTCAGCTCCTTCAGTAGGA; sugars from the 5' end e5 d10 e5, all phosphorothioate, methylation of C not given here) [compound 272326]",77%
7,"272327 (antisense GGACATCCCTGCCTTATTCT; sugars from the 5' end e5 d10 e5, all phosphorothioate, methylation of C not given here) [compound 272327]",60%
8,"272328 (antisense GGCATTGTCCATAAGGAAGT; sugars from the 5' end e5 d10 e5, all phosphorothioate, methylation of C not given here) [compound 272328]",85%
9,"272329 (antisense ACTTTTTGGCATCTGCCTCA; sugars from the 5' end e5 d10 e5, all phosphorothioate, methylation of C not given here) [compound 272329]",63%
10,"272330 (antisense GATGCACTTTTTGGCATCTG; sugars from the 5' end e5 d10 e5, all phosphorothioate, methylation of C not given here) [compound 272330]",47%
11,"272331 (antisense CAGTCGCATTGAGTATGAGG; sugars from the 5' end e5 d10 e5, all phosphorothioate, methylation of C not given here) [compound 272331]",67%
12,"272332 (antisense CTCTTTGTCAGGCAAGGGCA; sugars from the 5' end e5 d10 e5, all phosphorothioate, methylation of C not given here) [compound 272332]",75%
13,"272333 (antisense GTGCTCACATAGCCACATGA; sugars from the 5' end e5 d10 e5, all phosphorothioate, methylation of C not given here) [compound 272333]",72%
14,"272334 (antisense AAGAAAGGCTAAGGCATGAT; sugars from the 5' end e5 d10 e5, all phosphorothioate, methylation of C not given here) [compound 272334]",61%
15,"272335 (antisense AAATACGTAGCTCTTGGGAA; sugars from the 5' end e5 d10 e5, all phosphorothioate, methylation of C not given here) [compound 272335]",47%
16,"272336 (antisense CAATCACTGCTACTAAACAG; sugars from the 5' end e5 d10 e5, all phosphorothioate, methylation of C not given here) [compound 272336]",69%
17,"272337 (antisense AAACATAGCCATTCAATGCT; sugars from the 5' end e5 d10 e5, all phosphorothioate, methylation of C not given here) [compound 272337]",39%
18,"272338 (antisense GTGCTATGGTTTGCATTCAA; sugars from the 5' end e5 d10 e5, all phosphorothioate, methylation of C not given here) [compound 272338]",78%

row,Substance,% INHIB (inhibitory effect on hGHR mRNA levels)
1,"272339 (antisense GTTTTACATATCCAAACTAT; sugars from the 5' end e5 d10 e5, all phosphorothioate, methylation of C not given here) [compound 272339]",72%
2,"272340 (antisense CATCAACCAAGATTTGGTGA; sugars from the 5' end e5 d10 e5, all phosphorothioate, methylation of C not given here) [compound 272340]",69%
3,"272341 (antisense GAGGCTATAGATCTTATCTC; sugars from the 5' end e5 d10 e5, all phosphorothioate, methylation of C not given here) [compound 272341]",65%
4,"272342 (antisense TAGTGAGAAAGAAAGTTTCT; sugars from the 5' end e5 d10 e5, all phosphorothioate, methylation of C not given here) [compound 272342]",45%
5,"272343 (antisense AATGCTCTCAAGAATGATGT; sugars from the 5' end e5 d10 e5, all phosphorothioate, methylation of C not given here) [compound 272343]",48%
6,"272344 (antisense ACACTCAATTCTAGCTTTTC; sugars from the 5' end e5 d10 e5, all phosphorothioate, methylation of C not given here) [compound 272344]",60%
7,"272345 (antisense CATCTATTACAAATAACATG; sugars from the 5' end e5 d10 e5, all phosphorothioate, methylation of C not given here) [compound 272345]",24%
8,"272346 (antisense CTCTTGGAGAAAACCATAGC; sugars from the 5' end e5 d10 e5, all phosphorothioate, methylation of C not given here) [compound 272346]",67%
9,"272347 (antisense TCTACACTGATGATACTTTA; sugars from the 5' end e5 d10 e5, all phosphorothioate, methylation of C not given here) [compound 272347]",62%
10,"272348 (antisense CACAGCTTTGAATTGAATTA; sugars from the 5' end e5 d10 e5, all phosphorothioate, methylation of C not given here) [compound 272348]",57%
11,"272349 (antisense AGTCTTCCAAACACACAGCT; sugars from the 5' end e5 d10 e5, all phosphorothioate, methylation of C not given here) [compound 272349]",68%
12,"272350 (antisense AGGCTGTTGTGAAATAGTAA; sugars from the 5' end e5 d10 e5, all phosphorothioate, methylation of C not given here) [compound 272350]",67%
13,"272351 (antisense ATAGAAATGTTGTCAGGCTG; sugars from the 5' end e5 d10 e5, all phosphorothioate, methylation of C not given here) [compound 272351]",57%
14,"272352 (antisense CCAAAATGACATTCTGAGAC; sugars from the 5' end e5 d10 e5, all phosphorothioate, methylation of C not given here) [compound 272352]",77%
15,"272353 (antisense ATAATGGCTTATGTGGCCAC; sugars from the 5' end e5 d10 e5, all phosphorothioate, methylation of C not given here) [compound 272353]",72%
16,"272354 (antisense AGTTATGTGACCCTGATTGA; sugars from the 5' end e5 d10 e5, all phosphorothioate, methylation of C not given here) [compound 272354]",65%
17,"272355 (antisense TTGAGTGTTCCTAAAATGAA; sugars from the 5' end e5 d10 e5, all phosphorothioate, methylation of C not given here) [compound 272355]",24%
18,"272356 (antisense ATGGAGGCTGGAGGTTCAAA; sugars from the 5' end e5 d10 e5, all phosphorothioate, methylation of C not given here) [compound 272356]",63%
